Assay results taken from patent US20100041089A1, “IMPROVED METHOD FOR DETECTING CHEMICAL […]” (priority 2006, published 2010).

Test system: yeast genes (expressed mRNA)
Assay: DNA chip measurement of expressed mRNA of yeast genes after culture with a toxic chemical substance
Assay type: cell-based, Saccharomyces cerevisiae S288C
Details: for level of expressed mRNA in the presence of chemical substance / level in the absence of chemical substance: cultured two hours with the chemical substance; for The level of expressed mRNA in the presence of chemical substance/The level of expressed mRNA in the absence of chemical substance: cultured two hours with substance
In short: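 Two-hour exposure of growing S. cerevisiae S288C (YPD, 25° C) to a sublethal toxicant preceded RNA isolation. Fluorescent cDNA was hybridized to a whole-genome array; a treated-to-untreated signal ratio of two or more was taken as significant.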

## Cl[C@H]1[C@H](Cl)[C@@H](Cl)[C@@H](Cl)[C@H](Cl)[C@H]1Cl [(7), γ-Hexachlorocyclohexane]
Gene YBR036C, Metabolism protein genes, DNA chip fluorescence ratio
  The level of expressed mRNA in the presence of chemical substance/The level of expressed mRNA in the absence of chemical substance, yeast gene YBR036C: 1.3
Gene YBR298C, Metabolism protein genes, DNA chip fluorescence ratio
  The level of expressed mRNA in the presence of chemical substance/The level of expressed mRNA in the absence of chemical substance, yeast gene YBR298C: 1.7
Gene YDL067C (mitochondria-located protein gene), yeast cultured two hours with chemical substance, DNA chip fluorescence ratio to control
  The level of expressed mRNA in the presence of chemical substance/The level of expressed mRNA in the absence of chemical substance, yeast gene YDL067C: 0.8
Gene YDL078C, Metabolism protein genes, DNA chip fluorescence ratio
  The level of expressed mRNA in the presence of chemical substance/The level of expressed mRNA in the absence of chemical substance, yeast gene YDL078C: 1.7
Gene YDL215C, Metabolism protein genes, DNA chip fluorescence ratio
  The level of expressed mRNA in the presence of chemical substance/The level of expressed mRNA in the absence of chemical substance, yeast gene YDL215C: 1.9
Gene YDR079W (mitochondria-located protein gene), yeast cultured two hours with chemical substance, DNA chip fluorescence ratio to control
  The level of expressed mRNA in the presence of chemical substance/The level of expressed mRNA in the absence of chemical substance, yeast gene YDR079W: 1.3
Gene YDR297W, Metabolism protein genes, DNA chip fluorescence ratio
  The level of expressed mRNA in the presence of chemical substance/The level of expressed mRNA in the absence of chemical substance, yeast gene YDR297W: 0.6
Gene YDR387C, Metabolism protein genes, DNA chip fluorescence ratio
  The level of expressed mRNA in the presence of chemical substance/The level of expressed mRNA in the absence of chemical substance, yeast gene YDR387C: 1.3
Gene YGL035C, Metabolism protein genes, DNA chip fluorescence ratio
  The level of expressed mRNA in the presence of chemical substance/The level of expressed mRNA in the absence of chemical substance, yeast gene YGL035C: 1.2
Gene YGR062C (mitochondria-located protein gene), yeast cultured two hours with chemical substance, DNA chip fluorescence ratio to control
  The level of expressed mRNA in the presence of chemical substance/The level of expressed mRNA in the absence of chemical substance, yeast gene YGR062C: 1.3
Gene YGR287C, Metabolism protein genes, DNA chip fluorescence ratio
  The level of expressed mRNA in the presence of chemical substance/The level of expressed mRNA in the absence of chemical substance, yeast gene YGR287C: 2.2
Gene YJL070C, Metabolism protein genes, DNA chip fluorescence ratio
  The level of expressed mRNA in the presence of chemical substance/The level of expressed mRNA in the absence of chemical substance, yeast gene YJL070C: 1.4
Gene YJL096W (mitochondria-located protein gene), yeast cultured two hours with chemical substance, DNA chip fluorescence ratio to control
  The level of expressed mRNA in the presence of chemical substance/The level of expressed mRNA in the absence of chemical substance, yeast gene YJL096W: 1.7
Gene YJL180C (mitochondria-located protein gene), yeast cultured two hours with chemical substance, DNA chip fluorescence ratio to control
  The level of expressed mRNA in the presence of chemical substance/The level of expressed mRNA in the absence of chemical substance, yeast gene YJL180C: 1.6
Gene YKR009C, Metabolism protein genes, DNA chip fluorescence ratio
  The level of expressed mRNA in the presence of chemical substance/The level of expressed mRNA in the absence of chemical substance, yeast gene YKR009C: 1.0
Gene YLR295C (mitochondria-located protein gene), yeast cultured two hours with chemical substance, DNA chip fluorescence ratio to control
  The level of expressed mRNA in the presence of chemical substance/The level of expressed mRNA in the absence of chemical substance, yeast gene YLR295C: 1.1
Gene YLR351C, Metabolism protein genes, DNA chip fluorescence ratio
  The level of expressed mRNA in the presence of chemical substance/The level of expressed mRNA in the absence of chemical substance, yeast gene YLR351C: 1.4
Gene YLR375W, Metabolism protein genes, DNA chip fluorescence ratio
  The level of expressed mRNA in the presence of chemical substance/The level of expressed mRNA in the absence of chemical substance, yeast gene YLR375W: 0.9
Gene YMR023C (mitochondria-located protein gene), yeast cultured two hours with chemical substance, DNA chip fluorescence ratio to control
  The level of expressed mRNA in the presence of chemical substance/The level of expressed mRNA in the absence of chemical substance, yeast gene YMR023C: 1.9
Gene YMR267W (mitochondria-located protein gene), yeast cultured two hours with chemical substance, DNA chip fluorescence ratio to control
  The level of expressed mRNA in the presence of chemical substance/The level of expressed mRNA in the absence of chemical substance, yeast gene YMR267W: 1.2
Gene YMR267W, Metabolism protein genes, DNA chip fluorescence ratio
  The level of expressed mRNA in the presence of chemical substance/The level of expressed mRNA in the absence of chemical substance, yeast gene YMR267W: 1.2
Gene YMR278W, Metabolism protein genes, DNA chip fluorescence ratio
  The level of expressed mRNA in the presence of chemical substance/The level of expressed mRNA in the absence of chemical substance, yeast gene YMR278W: 1.8
Gene YMR293C, Metabolism protein genes, DNA chip fluorescence ratio
  The level of expressed mRNA in the presence of chemical substance/The level of expressed mRNA in the absence of chemical substance, yeast gene YMR293C: 1.2
Gene YNL073W (mitochondria-located protein gene), yeast cultured two hours with chemical substance, DNA chip fluorescence ratio to control
  The level of expressed mRNA in the presence of chemical substance/The level of expressed mRNA in the absence of chemical substance, yeast gene YNL073W: 1.1
Gene YNR072W, Metabolism protein genes, DNA chip fluorescence ratio
  The level of expressed mRNA in the presence of chemical substance/The level of expressed mRNA in the absence of chemical substance, yeast gene YNR072W: 1.5
Gene YOL096C, Metabolism protein genes, DNA chip fluorescence ratio
  The level of expressed mRNA in the presence of chemical substance/The level of expressed mRNA in the absence of chemical substance, yeast gene YOL096C: 1.7
Gene YOR180C, Metabolism protein genes, DNA chip fluorescence ratio
  The level of expressed mRNA in the presence of chemical substance/The level of expressed mRNA in the absence of chemical substance, yeast gene YOR180C: 0.8
Gene YOR316C (mitochondria-located protein gene), yeast cultured two hours with chemical substance, DNA chip fluorescence ratio to control
  The level of expressed mRNA in the presence of chemical substance/The level of expressed mRNA in the absence of chemical substance, yeast gene YOR316C: 1.4
Gene YOR363C, Metabolism protein genes, DNA chip fluorescence ratio
  The level of expressed mRNA in the presence of chemical substance/The level of expressed mRNA in the absence of chemical substance, yeast gene YOR363C: 0.7
Gene YPL040C (mitochondria-located protein gene), yeast cultured two hours with chemical substance, DNA chip fluorescence ratio to control
  The level of expressed mRNA in the presence of chemical substance/The level of expressed mRNA in the absence of chemical substance, yeast gene YPL040C: 0.8
Gene YPL134C (mitochondria-located protein gene), yeast cultured two hours with chemical substance, DNA chip fluorescence ratio to control
  The level of expressed mRNA in the presence of chemical substance/The level of expressed mRNA in the absence of chemical substance, yeast gene YPL134C: 1.2
Gene YPR184W, Metabolism protein genes, DNA chip fluorescence ratio
  The level of expressed mRNA in the presence of chemical substance/The level of expressed mRNA in the absence of chemical substance, yeast gene YPR184W: 1.3
Yeast gene YAL018C
  level of expressed mRNA in the presence of chemical substance / level in the absence of chemical substance: 1.0
Yeast gene YAL053W
  The level of expressed mRNA in the presence of chemical substance/The level of expressed mRNA in the absence of chemical substance: 0.7
Yeast gene YAR047C
  level of expressed mRNA in the presence of chemical substance / level in the absence of chemical substance: 1.2
Yeast gene YAR064W
  level of expressed mRNA in the presence of chemical substance / level in the absence of chemical substance: 1.1
Yeast gene YBL044W
  level of expressed mRNA in the presence of chemical substance / level in the absence of chemical substance: 1.1
Yeast gene YBL048W
  The level of expressed mRNA in the presence of chemical substance/The level of expressed mRNA in the absence of chemical substance: 1.9
Yeast gene YBL107C
  The level of expressed mRNA in the presence of chemical substance/The level of expressed mRNA in the absence of chemical substance: 2.1
Yeast gene YBR012C
  level of expressed mRNA in the presence of chemical substance / level in the absence of chemical substance: 1.5
Yeast gene YBR066C
  level of expressed mRNA in the presence of chemical substance / level in the absence of chemical substance: 1.3
Yeast gene YBR124W
  level of expressed mRNA in the presence of chemical substance / level in the absence of chemical substance: 1.1
Yeast gene YBR162C
  level of expressed mRNA in the presence of chemical substance / level in the absence of chemical substance: 0.3
Yeast gene YBR287W
  level of expressed mRNA in the presence of chemical substance / level in the absence of chemical substance: 1.1
Yeast gene YCL056C
  level of expressed mRNA in the presence of chemical substance / level in the absence of chemical substance: 1.6
Yeast gene YCR007C
  level of expressed mRNA in the presence of chemical substance / level in the absence of chemical substance: 2.0
Yeast gene YDL046W
  level of expressed mRNA in the presence of chemical substance / level in the absence of chemical substance: 1.2
Yeast gene YDL072C
  The level of expressed mRNA in the presence of chemical substance/The level of expressed mRNA in the absence of chemical substance: 1.8
Yeast gene YDL204W
  The level of expressed mRNA in the presence of chemical substance/The level of expressed mRNA in the absence of chemical substance: 3.2
Yeast gene YDL222C
  The level of expressed mRNA in the presence of chemical substance/The level of expressed mRNA in the absence of chemical substance: 1.0
Yeast gene YDR090C
  level of expressed mRNA in the presence of chemical substance / level in the absence of chemical substance: 1.5
Yeast gene YDR128W
  level of expressed mRNA in the presence of chemical substance / level in the absence of chemical substance: 0.8
